The values below come from patent publication EP1584686A1, “Progenitor cell preservation factors and related methods and products” (ImClone Systems Incorporated, priority 1999, dated 2001).

In one data set the test system is mice. The following applies: single dose 150 mg/kg; Lerner and Harrison 1990; cited from earlier work.
A further data set addresses T1, Dl-FRIL (Lablab purpureus, UniProt Q9ZTA9).
T1 sequence (Q9ZTA9 9-272): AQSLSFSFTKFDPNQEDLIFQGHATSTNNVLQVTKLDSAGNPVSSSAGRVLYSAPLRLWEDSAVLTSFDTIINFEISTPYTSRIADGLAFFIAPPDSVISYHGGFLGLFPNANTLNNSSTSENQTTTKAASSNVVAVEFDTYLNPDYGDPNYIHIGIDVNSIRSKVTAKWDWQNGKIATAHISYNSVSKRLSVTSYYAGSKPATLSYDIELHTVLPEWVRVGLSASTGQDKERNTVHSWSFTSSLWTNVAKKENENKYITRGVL
The following applies: Mo et al., Glycobiology 9:173-179,1999; cited from earlier work.

Data set [1] addresses FLT3 receptor on FLT3-transfected 3T3 cells (chimeric murine FLT3/human Fms receptor or full length human receptor, not told apart). Description: cell-based or functional assay.

Where only a bound is given, the exact number is not on record here.

With `O=c1[nH]cc(F)c(=O)[nH]1` [5-FU, 5-fluorouracil], the “reduction of bone marrow cellularity” value in the data set with mice is more than 90%. Take `OC[C@H]1O[C@H](O[C@H]2O[C@H](CO)[C@@H](O)[C@H](O)[C@H]2O)[C@H](O)[C@@H](O)[C@@H]1O` [α,α-trehalose]: the “potency greater than mannose” value at Dl-FRIL is recorded as 3.6 fold. On to “Pv-FRIL (Phaseolus vulgaris FRIL), native, purified from PHA-LCM or from red kidney bean extract”, for which the Specific Activity (u/mg) in the Flt3 3T3 assay, after the Superdex 75 step in data set [1] worked out at 244000 units/mg.
